Data as given in patent EP2929785A1, “A PLA inhibitor for inhibition of fat absorption” (PAT GmbH, priority 2014, dated 2015).

Legend:
[1] = tested on: retrogradely perfused mouse livers; assay: Single pass [3H]oleate extraction rates in retrogradely perfused mouse livers; assay type: in vivo, C57BL/6 mice; settings: mice pretreated i.p. 23 mg/kg, 1 h
Procedure: Twelve-week-old female C57BL/6 mice were injected intraperitoneally with 1 ml UDCA-LPE [ChemCon, Freiburg, Germany] (Chamulitrat W. et al. Hepatology. 2009; 50: 143-154) at 23 mg/kg or phosphate-buffered saline (PBS) as a control with 5% Tween 80. […] Retrograde perfusion of oxygenized 100 µM albumin (A4503, Sigma, Munich, Germany) in PBS was performed at 37°C and a flow rate of 4 ml/min, with the perfusate collected from the opened portal vein (Hoffmann MJ et al. Hepatology. 2012; 55: 1369-1378). After equilibration for 5 min, a 1 ml bolus of 200 µM [3H]oleate (Perkin Elmer, Rodgau, Germany) along with 100 µM [methyl-14 C]albumin (Biotrend, Cologne, Germany) or 100 µM [14C]sucrose (Perkin Elmer) was introduced through the stopcock and the perfusion was allowed to continue for 5 min. Outflow samples were collected every 15 s and single pass extraction rates were determined as previously described (Hoffmann MJ et al. Toxicol. Sciences. 1999; 49: 40-47).

wild-type hepatocytes = assay: Fatty acid influx in primary hepatocytes from wild-type mice; assay type: cell-based; settings: UDCA-LPE pretreatment (Fig. 4B)
[2] = target: T1, fatty acid uptake complex in the DRM-PM consisting of CD36, FABPPM, caveolin1, and iPLA2ß (Homo sapiens, UniProt O60733); assay: Disassembly of the fatty acid uptake complex in DRM-PM of HepG2 cells (immunoprecipitation, western blotting); assay type: cell-based
T1 construct: western blotting of DRM-PM isolated from these cells; endogenous in cells; host or cells: HepG2
T1 sequence (O60733 1-806): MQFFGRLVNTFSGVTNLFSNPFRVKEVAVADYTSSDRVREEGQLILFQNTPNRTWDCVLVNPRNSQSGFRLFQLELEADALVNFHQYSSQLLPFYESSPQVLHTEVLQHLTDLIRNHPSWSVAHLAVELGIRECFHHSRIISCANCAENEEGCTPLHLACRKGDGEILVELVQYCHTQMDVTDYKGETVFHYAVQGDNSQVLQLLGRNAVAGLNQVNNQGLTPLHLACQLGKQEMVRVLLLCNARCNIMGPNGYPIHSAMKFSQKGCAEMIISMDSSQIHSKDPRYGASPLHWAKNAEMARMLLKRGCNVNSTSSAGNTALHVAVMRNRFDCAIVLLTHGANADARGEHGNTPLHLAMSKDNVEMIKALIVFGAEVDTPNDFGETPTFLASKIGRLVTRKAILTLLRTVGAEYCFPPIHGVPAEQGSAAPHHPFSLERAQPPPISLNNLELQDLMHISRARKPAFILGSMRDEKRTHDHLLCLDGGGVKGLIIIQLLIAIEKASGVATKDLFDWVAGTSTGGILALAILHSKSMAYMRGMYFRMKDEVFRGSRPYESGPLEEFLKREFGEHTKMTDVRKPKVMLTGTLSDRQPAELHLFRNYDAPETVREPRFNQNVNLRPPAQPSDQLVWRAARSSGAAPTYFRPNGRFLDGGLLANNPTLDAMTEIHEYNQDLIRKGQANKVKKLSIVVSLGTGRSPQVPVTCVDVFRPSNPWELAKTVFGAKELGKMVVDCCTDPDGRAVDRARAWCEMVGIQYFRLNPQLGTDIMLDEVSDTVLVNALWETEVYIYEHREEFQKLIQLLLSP
Procedure: (§1) Detergent-resistant PM (DRM-PM) and non-DRM-PM fractions were isolated and characterized as previously described (Pohl J et al. Mol Biol Cell. 2005; 16: 24-31). Subcellular membrane fractions were prepared by centrifugation at 100,000 g for 1 h to obtain homogenate pellets. Nuclear extracts were obtained by centrifugation at 500 g for 5 min. Pellets were washed and resuspended in a buffer solution containing […] (pH 7.4), 100 mM NaCl, and 0.1 mM EDTA (Marzluff WF et al. Meth Cell Biol. 1987; 317-331)). The protein concentration was determined by the Bradford method (Bio- Rad, Munich, Germany).
Immunoblotting was performed according to a standard protocol as set out in Sun Q., et al. Biol Med (Maywood). 2012; 237: 178-185. […] To estimate the protein concentration a semi-quantitative densitometry was performed as described in Sun Q et al. (loc cit.). […]

iPLA2ß = target: T2, iPLA2ß (Homo sapiens, UniProt O60733); assay: PLA2 activity in DRM-PM fractions of HepG2 cells; assay type: biochemical; settings: DRM-PM fractions after 1-h treatment; dose-dependent
T2 construct: PLA2 activity in DRM-PM fractions isolated from HepG2 cells; endogenous in cells; host or cells: HepG2 (DRM-PM fraction)
T2 sequence (O60733 1-806): T1 sequence (O60733 1-806)
Procedure: as §1
PLA2 activity (µmoles LPC/mg protein/h) was determined by incubating samples with arachidonoyl thio-PC (62240; Cayman, Tallin, Estonia) for 1 h at 25°C in a Ca2+ -free buffer (Bhat MK et al. Biochim Biophys Act. 1993; 1166: 244-250). The reaction was terminated by adding 5,5-dithio-bis-2-nitrobenzoic acid and the absorbance at 405 nm was measured.

Q: With “ursodeoxycholatelysophosphatidylethanolamide [UDCA-LPE]” as the substance, how does the “cumulative proportion of the [3H]oleate extracted” value ([1]; 200 µM [3H]oleate:albumin (2:1)) read?
A: 0.30 ± 0.03

Q: And the “inhibition of fatty acid influx” value ([1]; vs controls)?
A: 34%

Q: And the fatty acid influx (wild-type hepatocytes)?
A: inhibited

Q: And the “incubation time at which the fatty acid uptake complex began to disassemble” value ([2]; 50 µM)?
A: ≥ 30 min

Q: What about the “concentration at which the fatty acid uptake complex began to disassemble” value ([2]; 30 min of incubation) of the same substance?
A: ≥ 50 µM

Q: And the PLA2 activity (iPLA2ß)?
A: suppression of PLA2 activity
